These results are taken from publication PMC4741889, “Ligand-based chemoinformatic discovery of a novel small molecule inhibitor targeting CDC25 dual specificity phosphatases and displaying in vitro efficacy against melanoma cells” (Oncotarget, 2015).

Structures are written as SMILES.

In one series the target is T1, CDC25C (Homo sapiens, UniProt P30307).
T1 construct: Recombinant forms of the catalytic domains of CDC25A, -B and -C were obtained through the vectors pET28a-CDC25A-cd, pET28a-CDC25B-cd and pET28a-CDC25C-cd; made in house
T1 sequence (P30307 321-428 limits assumed): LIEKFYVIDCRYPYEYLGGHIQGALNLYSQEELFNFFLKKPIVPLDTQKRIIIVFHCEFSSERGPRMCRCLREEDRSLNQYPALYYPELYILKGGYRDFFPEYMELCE
Description: Ki from OMFP hydrolysis kinetics (Lineweaver-Burk), CDC25C. Type of series: biochemical. The settings on record: 40 nM CDC25C, 1–25 μM OMFP; mean ± S.E.; read-out: Ki CDC25C. Here is the method: To measure the inhibition constant (Ki) of the recombinant forms of CDC25A, -B and -C towards the various inhibitors, the affinity of the different forms of CDC25 towards OMFP was measured either in the absence or in the presence of fixed concentrations of the various inhibitors. The reaction mixture contained 20 nM CDC25A, or 10 nM CDC25B, or 40 nM CDC25C, and different concentrations of the various inhibitors in 500 μL final volume of 20 mM Tris-HCl, pH 7.8, 1 mM DTT. DMSO was used as vehicle control. […] The corresponding Lineweaver-Burk plots allowed the calculation of the KM for OMFP and of the Vmax of OMFP hydrolysis, expressed as a.u./minmax. […] The Ki values were obtained from the decrease of a.u./minmax in the presence of the inhibitor, according to the equation a.u./mimmax’ = a.u./mimmax/{1 + ([I]/Ki)}, where a.u./mimmax’ represents the Vmax measured in the presence of the concentration [I] of the inhibitor. The Ki values were obtained from at least three independent experiments and reported as mean ± S.E.

The subject of series [1] is A2058 cells. Description: MTT cell growth rate, A2058 melanoma cells. Type of series: cell-based, human. The note with it: for cell growth rate: A2058, 100 μM. The method, then: The human melanoma cell line A2058, kindly provided by CEINGE (Naples, Italy), and SAN cells were derived from lymph nodal metastases and grown in DMEM and RPMI 1640, respectively, supplemented with 10% FBS, 2 mM L-glutamine, 100 IU/mL penicillin G, and 100 μg/mL streptomycin in humidified incubator at 37°C under 5% CO2 atmosphere. All cells were split and seeded every three days and used during the exponential phase of growth. Cell treatments were always carried after 24 h from plating.
The MTT assay was used to detect cell proliferation essentially as previously described. Briefly, A2058 and SAN cells were plated in 96-well microtiter plates (100 μL/well) at 4000 and 6000 cells/well, respectively. After 24-h seeding, cells were treated with the selected compounds added at 25, 50 or 100 μM concentration, or with 0.5% (v/v) DMSO as a vehicle control. After 24-h, 48-h or 72-h treatment, and upon the addition of 10 μL of MTT solution in the dark, the plate was incubated for 3 h at 37°C under CO2 atmosphere. After medium aspiration and solubilization of formazan crystals, absorbance was measured at 570 nm, using an ELISA plate reader (Bio-Rad, Milano, Italy).

Series [2] deals with A2058 cells. Description: Apoptosis, subdiploid DNA content by PI flow cytometry, A2058 cells. The class given is cell-based, human. An excerpt:
PI incorporation followed by flow cytometric analysis was used to detect the effect of 7 on the number of nuclei with a sub-diploid content, a typical hallmark of apoptosis. A time-dependent increase of apoptosis was evident in both A2058 and SAN cells and in particular, the effect of 7 on cell death program was already evident after 24-h treatment (Figure 7). […] To further investigate on the capacity of 7 to induce apoptosis, the enzymatic activity of caspase-3, the final effector of apoptotic program, was monitored.
[…] After each treatment, cells were harvested with trypsin, centrifuged and the pellet was resuspended in phosphate-buffered saline (PBS). For cell cycle analysis, cells were fixed with 70% (v/v) cold ethanol and stored at −20°C for 1 h. Then, cells were washed with cold PBS, centrifuged and the pellets were resuspended in 200 μL of a non-lysis solution containing 50 μg/mL PI. For the evaluation of apoptosis, cells were not fixed in ethanol and directly resuspended in 200 μL of a hypotonic lysis solution containing 50 μg/mL PI. After incubation at 4°C for 30 min, cells were analyzed with a FACScan flow cytometer (Becton Dickinson) for evaluating the distribution in cell cycle phases or the presence of nuclei with a DNA content lower than the diploid.
In general terms: In flow cytometry, cells or beads pass a laser one at a time.

The next series concerns p53 protein levels. Description: Western blotting of p53 protein levels in SAN cells. The settings on record: 100 μM, 16 h (not shown). The class given is cell-based, human. For orientation: Immunoblotting shows a protein as a band on a membrane.

Turning to `O=C(O)C1CCCCC1c1c2ccc(=O)cc-2oc2cc(O)ccc12` (centres unmarked) [Compound 7, 2-(6-hydroxy-3-oxo-3H-xanthen-9-yl)cyclohexanecarboxylic acid], at CDC25C, the Ki (in general, a measure of affinity in units of concentration, obtained from inhibition or displacement) was 3.1 ± 0.22 µM. For the same compound, the cell growth rate entry is “significant reduction of the cell growth rate” in the series on A2058 cells [1] (48 h, MTT) and “significant reduction of cell growth rate” with A2058 cells [1] (72 h, MTT (data not shown)). Besides, the “minimum concentration of inhibitor that caused an evident cytotoxic activity” value in the series with A2058 cells [1] (A2058, 25, 50 or 100 μM tested, 48 h (Supplementary Figure S2)) was found to be 100 µM. In addition, the “level of apoptosis caused by 7 in the presence of Z-VAD-FMK” value in the series on A2058 cells [2] (A2058, 100 μM 7 + 100 μM Z-VAD-FMK, 48 h) is listed as “significantly decreased”. Further, the “apoptosis (nuclei with sub-diploid content)” value in the series on A2058 cells [2] (A2058, 100 μM, 24-72 h) is reported as “increase of apoptosis became significant at 48 h”. The “apoptosis after NAC pre-treatment” value with A2058 cells [2] (A2058, NAC pre-treatment, 100 μM 7, 48 h) is listed as “in a great part reverted”. Moreover, the p53 protein level result in the series with p53 protein levels is “higher level of this protein”.
